In brackets after ≈: the same amount, converted by molar mass. Activity calls are given as the source filed them. No cut-off for these calls is given here.
Experiments:
A549 [1] = assay: Cytotoxicity against human A549 cells; format: functional; details: read-out: ED50 (the source's name)
HCT-8 = assay: Cytotoxicity against human HCT8 cells at 4 ug/ml; format: functional, cell-based
P388 = assay: Cytotoxicity against mouse P388 cells; format: functional; details: read-out: ED50 (the source's name)
TE-671 = assay: Cytotoxicity against human TE671 cells; format: functional; details: read-out: ED50 (the source's name)
A549 [2] = assay: Cytotoxicity against human A549 cells at 4 ug/ml; format: functional, cell-based
[3] = Cytotoxicity against human RPMI cells; format: functional; details: read-out: ED50 (the source's name)
KB = assay: Cytotoxicity against human KB cells; format: functional; details: read-out: ED50 (the source's name)

Row | Structure (SMILES) | EC50 (A549 [1]) [µg/mL] | Activity (HCT-8) | EC50 (P388) [µg/mL] | EC50 (TE-671) [µg/mL] | Activity (A549 [2]) | EC50 [3] [µg/mL] | EC50 (KB) [µg/mL]
1 | O=C1C=CC[C@H]([C@H](O)[C@H](O)c2ccccc2)O1 [GONIODIOL] | 0.12 (≈ 0.512 µM) |  |  |  |  |  | 
2 | CC(=O)O[C@H]([C@H](O)c1ccccc1)[C@H]1CC=CC(=O)O1 |  | inactive | < 0.1 | < 0.1 | inactive | < 0.1 | < 0.1

From ChEMBL document CHEMBL1158973, “The crystal structure and cytotoxicity of goniodiol-7-monoacetate from Goniothalamus amuyon” (1991)
